Earlier results, collected in patent publication US6849254B1, “HCV combination therapy” (Schering Corporation, priority 1999, dated 2005).

Columns and labels:
[1] = tested on: chronic childhood cholestasis; conditions: 20-25 IU/kg/day (Sokool et al.)
[2] = for Potency of 1 mg in IU of Vitamin E: per 1 mg
CD4 levels = conditions: HIV patients; higher doses; Phase I/II clinical trials (PharmaProjects)

Row | Compound | Potency of 1 mg in IU of Vitamin E [2] | also measured
1 | d-alpha-tocopheryl polyethylene glycol 1000 succinate [Vitamin E-TPGS] |  | Safety and efficacy in chronic childhood cholestasis [1]: appears to be safe and effective
2 | CC(=O)Oc1c(C)c(C)c2c(c1C)CC[C@@](C)(CCC[C@H](C)CCC[C@H](C)CCCC(C)C)O2 [di-alpha tocopheryl acetate] |  | Amount equivalent to one IU of Vitamin E ([2]; per one IU of Vitamin E): 1 mg
3 | CC(=O)Oc1c(C)c(C)c2c(c1C)CC[C@@](C)(CCC[C@H](C)CCC[C@H](C)CCCC(C)C)O2 [d-alpha tocopheryl acetate] | 1.36 IU | 
4 | CC(C)(Sc1cc(C(C)(C)C)c(O)c(C(C)(C)C)c1)Sc1cc(C(C)(C)C)c(O)c(C(C)(C)C)c1 [Panavia, 4,4′-isopropylidenedithiobis-2,6-di-t-butylphenol] |  | CD4 levels (CD4 levels): stablized or slightly stabilized CD4 levele
5 | Cc1c(C)c2c(c(C)c1OC(=O)CCC(=O)O)CC[C@@](C)(CCC[C@H](C)CCC[C@H](C)CCCC(C)C)O2 [d-alpha tocopheryl succinate] | 1.21 IU | 
6 | Cc1c(C)c2c(c(C)c1O)CC[C@@](C)(CCC[C@H](C)CCC[C@H](C)CCCC(C)C)O2 [d-alpha tocopherol] | 1.49 IU | 
